Among the data in patent US9234000B2, “Benzylamine derivatives as inhibitors of plasma kallikrein” (KalVista Pharmaceuticals Limited, priority 2011, dated 2016) are solubility in PO4 buffer and IC50 values, retold here.

The structures appear in SMILES notation. Like-named read-outs stand apart in the source and are kept apart here. A value given as a limit tells only on which side of the number the result lay.

The nature of data set [1]: physchem. The conditions noted are these: pH 7. How it is done:
Determination of the Kinetic Solubility in Phosphate Buffer
After shaking for approximately 30 seconds the reduction in light transmission of these samples, at 650 nm, was measured (Molecular Devices Spectromax UV/visible spectrophotometer). A second measurement was taken at approximately 30 seconds later.

In data set [2] the target is Human KLK1 (Homo sapiens (Human), UniProt P06870). Kind of data set: Determination of the IC50 for KLK1. The conditions noted are these: Human KLK1, 37° C., substrate H-DVal-Leu-Arg-AFC. In kind it is biochemical. The procedure, abridged: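 hKLK1 + H-DVal-Leu-Arg-AFC, 37° C, varied cpd conc. Initial rate by A410 change → residual activity → IC50.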
In data set [3] the target is Human plasma kallikrein (Homo sapiens (Human), UniProt P03952). Kind of data set: Determination of the IC50 for plasma kallikrein. In kind it is biochemical. The conditions noted are these: 37° C., read-out: IC50 (human PKal). The method in brief: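 Human plasma kallikrein incubated at 37° C with fluorogenic substrate H-DPro-Phe-Arg-AFC and varying compound concentrations. Initial reaction rate followed by absorbance change at 410 nm to give residual activity and IC50.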

Setting [4] is: fluorogenic substrate H-DPro-Phe-Arg-AFC.

Human KLK1, sequence (P06870 25-262): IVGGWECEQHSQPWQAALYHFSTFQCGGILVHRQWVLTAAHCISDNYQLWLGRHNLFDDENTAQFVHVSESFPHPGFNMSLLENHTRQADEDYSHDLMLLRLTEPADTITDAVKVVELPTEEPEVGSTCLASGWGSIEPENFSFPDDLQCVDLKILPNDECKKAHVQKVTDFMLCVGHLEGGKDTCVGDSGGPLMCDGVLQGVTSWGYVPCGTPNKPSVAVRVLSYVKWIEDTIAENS
Human plasma kallikrein, sequence (P03952 391-638): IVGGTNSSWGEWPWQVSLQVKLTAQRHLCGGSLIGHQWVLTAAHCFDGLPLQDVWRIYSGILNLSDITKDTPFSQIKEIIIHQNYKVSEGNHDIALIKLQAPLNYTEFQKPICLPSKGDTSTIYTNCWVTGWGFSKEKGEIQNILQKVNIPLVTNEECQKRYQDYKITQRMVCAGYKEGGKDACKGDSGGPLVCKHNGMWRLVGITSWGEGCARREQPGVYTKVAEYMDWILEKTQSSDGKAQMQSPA
Human plasma kallikrein, sequence (P03952 20-390 partner): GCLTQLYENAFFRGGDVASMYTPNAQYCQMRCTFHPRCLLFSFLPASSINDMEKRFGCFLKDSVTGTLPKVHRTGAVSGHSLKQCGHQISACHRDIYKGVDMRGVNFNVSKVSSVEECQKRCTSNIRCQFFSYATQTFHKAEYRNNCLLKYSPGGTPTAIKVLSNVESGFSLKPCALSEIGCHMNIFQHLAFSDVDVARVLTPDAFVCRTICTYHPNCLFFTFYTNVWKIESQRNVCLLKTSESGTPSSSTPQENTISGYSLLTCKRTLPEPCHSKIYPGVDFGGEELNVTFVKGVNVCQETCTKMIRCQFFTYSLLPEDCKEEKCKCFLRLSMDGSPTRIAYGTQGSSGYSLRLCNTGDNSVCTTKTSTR

Compound `NCc1ccc(CNC(=O)[C@H](Cc2ccccc2)NC(=O)[C@H](N)CC2CCCCC2)cc1` [Example 8, (R)-2-Amino-N-[(S)-1-(4-aminomethyl-benzylcarbamoyl)-2-phenyl-ethyl]-3-cyclohexyl-propionamide] returned a solubility in PO4 buffer in data set [1] of over 235 µM.
Take `CCOc1ccc(C[C@@H](NC(=O)c2cncc(OC)c2)C(=O)N[C@@H](Cc2ccccc2)C(=O)NCc2ccc(CN)cc2)cc1` [Example 121, N-[(R)-1-[(S)-1-(4-Aminomethyl-benzylcarbamoyl)-2-phenyl-ethylcarbamoyl]-2-(4-ethoxy-phenyl)-ethyl]-5-methoxy-nicotinamide]: the IC50 was over 10 µM in data set [2] (Table 13) and 0.31 µM in data set [3] (substrate H-DPro-Phe-Arg-AFC).
On the same counts, the results for `CCOc1ccc(C[C@@H](NC(=O)Nc2ccc(Cl)cc2)C(=O)N[C@@H](Cc2ccccc2)C(=O)NCc2ccc(CN)cc2)cc1` [Example 102, (R)-N-[(S)-1-(4-Aminomethyl-benzylcarbamoyl)-2-phenyl-ethyl]-2-[3-(4-chloro-phenyl)-ureido]-3-(4-ethoxy-phenyl)-propionamide] are 9 µM and 10 µM.
On the same counts, the results for `CCOc1ccc(C[C@@H](NC(=O)c2cccs2)C(=O)N[C@@H](Cc2ccc(Cl)c(Cl)c2)C(=O)NCc2ccc(CN)cc2)cc1` [Example 169, Thiophene-2-carboxylic acid [(R)-1-[(S)-1-(4-aminomethyl-benzylcarbamoyl)-2-(3,4-dichloro-phenyl)-ethylcarbamoyl]-2-(4-ethoxy-phenyl)-ethyl]-amide] are 9.9 µM and 0.044 µM.
For the compound `CCOc1ccc(C[C@@H](NC(=O)c2ccccn2)C(=O)N[C@@H](Cc2ccccc2)C(=O)NCc2ccc(CN)c(F)c2)cc1` [Example 168, Pyridine-2-carboxylic acid [(R)-1-[(S)-1-(4-aminomethyl-3-fluoro-benzylcarbamoyl)-2-phenyl-ethylcarbamoyl]-2-(4-ethoxy-phenyl)-ethyl]-amide], the IC50 is over 10 µM in data set [2] (Table 13) and 0.076 µM in data set [3] (substrate H-DPro-Phe-Arg-AFC).
The matching figures for `CCOc1ccc(C[C@@H](NC(=O)CNC(=O)c2ccccc2)C(=O)N[C@@H](Cc2ccccc2)C(=O)NCc2ccc(CN)cc2)cc1` [Example 98, N-{[(R)-1-[(S)-1-(4-Aminomethyl-benzylcarbamoyl)-2-phenyl-ethylcarbamoyl]-2-(4-ethoxy-phenyl)-ethylcarbamoyl]-methyl}-benzamide]: 5.1 µM and 0.576 µM.
As to `CCOc1ccc(C[C@@H](NC(=O)N(CC)Cc2ccccc2)C(=O)N[C@@H](Cc2ccccc2)C(=O)NCc2ccc(CN)cc2)cc1` [Example 103, (R)-N-[(S)-1-(4-Aminomethyl-benzylcarbamoyl)-2-phenyl-ethyl]-2-(3-benzyl-3-ethyl-ureido)-3-(4-ethoxy-phenyl)-propionamide], the IC50 in data set [2] (Table 13) is over 10 µM; in data set [3] (substrate H-DPro-Phe-Arg-AFC), 10 µM.
Consider `COC(=O)CN[C@H](CC1CCCCC1)C(=O)N[C@@H](Cc1ccccc1)C(=O)NCc1ccc(CN)cc1` [Example 47, {(R)-1-[(S)-1-(4-Aminomethyl-benzylcarbamoyl)-2-phenyl-ethylcarbamoyl]-2-cyclohexyl-ethylamino}-acetic acid methyl ester], for which the IC50 is over 10 µM in data set [2] (Table 12) and 2.1 µM in data set [3] (setting [4]).
For the compound `NCc1ccc(CNC(=O)[C@H](Cc2ccccc2)NC(=O)[C@@H](Cc2ccccc2)NC(=O)c2ccccc2)cc1` [Example 139, N-{(R)-1-[(S)-1-(4-Aminomethyl-benzylcarbamoyl)-2-phenyl-ethylcarbamoyl]-2-phenyl-ethyl}-benzamide], the concentration for half-maximal inhibition (IC50) in data set [2] (Table 13) was over 10 µM; in data set [3] (substrate H-DPro-Phe-Arg-AFC) it was 1.14 µM.
The matching figures for `CCOc1ccc(C[C@@H](NC(=O)CC(F)(F)F)C(=O)N[C@@H](Cc2ccc(Cl)c(Cl)c2)C(=O)NCc2ccc(CN)cc2)cc1` [Example 172, N-[(R)-1-[(S)-1-(4-Aminomethyl-benzylcarbamoyl)-2-(3,4-dichloro-phenyl)-ethylcarbamoyl]-2-(4-ethoxy-phenyl)-ethyl]-3,3,3-trifluoro-propionamide]: over 10 µM and 0.881 µM.
On the same counts, the results for `CCOc1ccc(C[C@@H](NC(=O)c2ccc(C)cc2)C(=O)N[C@@H](Cc2ccccn2)C(=O)NCc2ccc(CN)cc2)cc1` [Example 164, N-[(R)-1-[(S)-1-(4-Aminomethyl-benzylcarbamoyl)-2-pyridin-2-yl-ethylcarbamoyl]-2-(4-ethoxy-phenyl)-ethyl]-4-methyl-benzamide] are over 10 µM and 0.05 µM.
On the same counts, the results for `CCOc1ccc(C[C@@H](NC(=O)c2ccncc2)C(=O)N[C@@H](Cc2ccccc2)C(=O)NCc2ccc(CN)c(F)c2)cc1` [Example 167, N-[(R)-1-[(S)-1-(4-Aminomethyl-3-fluoro-benzylcarbamoyl)-2-phenyl-ethylcarbamoyl]-2-(4-ethoxy-phenyl)-ethyl]-isonicotinamide] are over 10 µM and 0.08 µM.
Take `CCOc1ccc(C[C@@H](NC(=O)c2cnc3cc(Cl)ccc3c2)C(=O)N[C@@H](Cc2ccccc2)C(=O)NCc2ccc(CN)cc2)cc1` [Example 115, 7-Chloro-quinoline-3-carboxylic acid [(R)-1-[(S)-1-(4-aminomethyl-benzylcarbamoyl)-2-phenyl-ethylcarbamoyl]-2-(4-ethoxy-phenyl)-ethyl]-amide]: the half-maximal inhibitory concentration (IC50) in data set [2] (Table 13) was determined as 9 µM; in data set [3] (substrate H-DPro-Phe-Arg-AFC) it was 0.417 µM.
On the same counts, the results for `CCOc1ccc(C[C@@H](NC(=O)c2cc3ccccc3s2)C(=O)N[C@@H](Cc2ccccc2)C(=O)NCc2ccc(CN)cc2)cc1` [Example 83, Benzo[b]thiophene-2-carboxylic acid[(R)-1-[(S)-1-(4-aminomethyl-benzylcarbamoyl)-2-phenyl-ethylcarbamoyl]-2-(4-ethoxy-phenyl)-ethyl]-amide] are over 10 µM and 0.254 µM.
For `COC(=O)CN[C@H](CC1CCCCC1)C(=O)N[C@@H](Cc1ccccc1)C(=O)NCc1ccc(CN)cc1` [Example 46, {(R)-1-[(S)-1-(4-Aminomethyl-benzylcarbamoyl)-2-phenyl-ethylcarbamoyl]-2-cyclohexyl-ethylamino}-acetic acid methyl ester], the half-inhibitory concentration (IC50) in data set [2] (Table 12) was over 10 µM; in data set [3] (setting [4]), 1.2 µM.
`CCOc1ccc(C[C@@H](NC(=O)c2ccncc2)C(=O)N[C@@H](Cc2ccc(F)c(F)c2)C(=O)NCc2ccc(CN)cc2)cc1` [Example 161, N-[(R)-1-[(S)-1-(4-Aminomethyl-benzylcarbamoyl)-2-(3,4-difluoro-phenyl)-ethylcarbamoyl]-2-(4-ethoxy-phenyl)-ethyl]-isonicotinamide]: the values for the concentration for half-maximal inhibition (IC50) in data set [2] (Table 13) and in data set [3] (substrate H-DPro-Phe-Arg-AFC) were 6.9 µM and 0.049 µM, respectively.
Regarding `CCOc1ccc(C[C@@H](NC(=O)CC)C(=O)N[C@@H](Cc2ccccc2)C(=O)NCc2ccc(CN)c(Cl)c2)cc1` [Example 23, (S)-N-(4-Aminomethyl-3-chloro-benzyl)-2-[(R)-3-(4-ethoxy-phenyl)-2-propionylamino-propionylamino]-3-phenyl-propionamide], the IC50 in data set [2] (Table 12) is 5.6 µM; in data set [3] (setting [4]), 0.031 µM.
On the same counts, the results for `CN(CC(N)=O)[C@H](CC1CCCCC1)C(=O)N[C@@H](Cc1ccccc1)C(=O)NCc1ccc(CN)cc1` [Example 48, (R)-N-[(S)-1-(4-Aminomethyl-benzylcarbamoyl)-2-phenyl-ethyl]-2-(carbamoylmethyl-methyl-amino)-3-cyclohexyl-propionamide] are over 10 µM and 4.7 µM.
Regarding `Cc1ccc(C[C@@H](NC(=O)c2ccccc2)C(=O)N[C@@H](Cc2ccccc2)C(=O)NCc2ccc(CN)cc2)cc1` [Example 135, N-{(R)-1-[(S)-1-(4-Aminomethyl-benzylcarbamoyl)-2-phenyl-ethylcarbamoyl]-2-p-tolyl-ethyl}-benzamide], the 50% inhibitory concentration (IC50) in data set [2] (Table 13) was over 10 µM; in data set [3] (substrate H-DPro-Phe-Arg-AFC), 0.424 µM.
On the same counts, the results for `CCOc1ccc(C[C@@H](NC(=O)c2ccccn2)C(=O)N[C@@H](Cc2ccc(Cl)c(Cl)c2)C(=O)NCc2ccc(CN)cc2)cc1` [Example 165, Pyridine-2-carboxylic acid [(R)-1-[(S)-1-(4-aminomethyl-benzylcarbamoyl)-2-(3,4-dichloro-phenyl)-ethylcarbamoyl]-2-(4-ethoxy-phenyl)-ethyl]-amide] are over 10 µM and 0.07 µM.
For the compound `CCOc1ccc(C[C@@H](NC(=O)NC(C)C)C(=O)N[C@@H](Cc2ccccc2)C(=O)NCc2ccc(CN)cc2)cc1` [Example 77, (R)-N-[(S)-1-(4-Aminomethyl-benzylcarbamoyl)-2-phenyl-ethyl]-3-(4-ethoxy-phenyl)-2-(3-isopropyl-ureido)-propionamide], the IC50 in data set [2] (Table 13) was over 10 µM; in data set [3] (substrate H-DPro-Phe-Arg-AFC) it was 1.96 µM.
The matching figures for `CCCCCCNC(=O)N[C@H](Cc1ccc(OCC)cc1)C(=O)N[C@@H](Cc1ccccc1)C(=O)NCc1ccc(CN)cc1` [Example 78, (R)-N-[(S)-1-(4-Aminomethyl-benzylcarbamoyl)-2-phenyl-ethyl]-3-(4-ethoxy-phenyl)-2-(3-hexyl-ureido)-propionamide]: over 10 µM and 10 µM.
On the same counts, the results for `CCOc1ccc(C[C@@H](NC(=O)c2ccncc2)C(=O)N[C@@H](Cc2ccc(Cl)c(Cl)c2)C(=O)NCc2ccc(CN)cc2)cc1` [Example 171, N-[(R)-1-[(S)-1-(4-Aminomethyl-benzylcarbamoyl)-2-(3,4-dichloro-phenyl)-ethylcarbamoyl]-2-(4-ethoxy-phenyl)-ethyl]-isonicotinamide] are 9.4 µM and 0.123 µM.
